Laboratory results published in US12441695B2, “Substituted thiadiazinone dioxide and preparation method therefor, herbicidal composition, and application therefor” (Qingdao Kingagroot Chemical Compound Co., Ltd., priority 2019, dated 2025).

Assays:
[1] = tested on: monocotyledonous and dicotyledonous weeds; assay: Experiment on weeding effect in post-emergence stage (weeds); assay type: in vivo; settings: 3 weeks after application; for Amaranthus retroflexus activity level (growth control rate): fomesafen-resistant Amaranthus retroflexus
Source text: The activity level criteria for plant damage (i.e., growth control rate) are as follows: • Level 5: growth control rate is above 85%; • Level 4: growth control rate is greater than or equal to 60% and less than 85%; • Level 3: growth control rate is greater than or equal to 40% and less than 60%; • Level 2: growth control rate is greater than or equal to 20% and less than 40%; • Level 1: growth control rate is greater than or equal to […]; • Level 0: growth control rate is less than 5%.
(§1) The above growth control rates are fresh weight control rates.
(§2) (1) Experiment on weeding effect in post-emergence stage: monocotyledonous and dicotyledonous weed seeds and major crop seeds (wheat, corn, rice, soybean, cotton, oilseed rape, millet, sorghum) were placed in plastic pots filled with soil, then covered with 0.5-2 cm of soil, allowed to grow in a good greenhouse environment. After 2-3 weeks of sowing, the test plants were treated. The tested compounds of the present invention were respectively dissolved in acetone, then added with Tween 80, diluted with a certain amount of water to obtain a solution with a certain concentration, and sprayed with a spray tower onto the plants. After the application, the plants were cultured for 3 weeks in the greenhouse, and then the experimental results of the weeding were listed in Table 2.

[2] = tested on: major crops (wheat, corn, rice, soybean, cotton, oilseed rape, millet, sorghum); assay: Experiment on weeding effect in post-emergence stage (crops); assay type: in vivo; settings: 600 g/ha active ingredient plus water 450 kg/ha, 3 weeks after application; for corn plant damage level (growth control rate): crop corn; for rice plant damage level (growth control rate): crop rice; for soybean plant damage level (growth control rate): crop soybean
Description: as §1
as §2, with “plants.” for “plants. After the application, the plants were cultured for 3 weeks in the greenhouse, and then the experimental results of the weeding were listed in Table 2.”

[3] = 600 g/ha active ingredient plus water 450 kg/ha, fresh weight control rate

Row | SMILES | Amaranthus retroflexus activity level (growth control rate) [1, 3] | Digitaria sanguinalis activity level (growth control rate) [1, 3] | Echinochloa crus-galli activity level (growth control rate) [1, 3] | Setaria viridis activity level (growth control rate) [1, 3] | corn plant damage level (growth control rate) [2] | rice plant damage level (growth control rate) [2] | soybean plant damage level (growth control rate) [2] | Digitaria sanguinalis activity level (growth control rate) ([1]; 300 g/ha) | Echinochloa crus-galli activity level (growth control rate) ([1]; 300 g/ha) | Setaria viridis activity level (growth control rate) ([1]; 300 g/ha) | Amaranthus retroflexus activity level (growth control rate) ([1]; 300 g/ha)
1 | CC(C)N1C(=O)c2cc(F)ccc2NS1(=O)=O [Compound 2] | 5 (Level 5: growth control rate is above 85%) | 3 (Level 3: growth control rate is greater than or equal to 40% and less than 60%) | 4 (Level 4: growth control rate is greater than or equal to 60% and less than 85%) | 4 (Level 4: growth control rate is greater than or equal to 60% and less than 85%) | 1 (Level 1: growth control rate is greater than or equal to 500 and less than 200%) | 0 (Level 0: growth control rate is less than 5%) | 1 (Level 1: growth control rate is greater than or equal to 500 and less than 200%) |  |  |  | 
2 | O=C1c2c(cc(F)c(F)c2F)NS(=O)(=O)N1CCl [E, reference compound] | 2 (Level 2: growth control rate is greater than or equal to 20% and less than 40%) | 1 (Level 1: growth control rate is greater than or equal to 500 and less than 200%) | 1 (Level 1: growth control rate is greater than or equal to 500 and less than 200%) | 2 (Level 2: growth control rate is greater than or equal to 20% and less than 40%) | 1 (Level 1: growth control rate is greater than or equal to 500 and less than 200%) | 1 (Level 1: growth control rate is greater than or equal to 500 and less than 200%) | 1 (Level 1: growth control rate is greater than or equal to 500 and less than 200%) |  |  |  | 
3 | CCCCCCCCSC(=O)N1c2ccc(F)cc2C(=O)N(C(C)C)S1(=O)=O [Compound 189] | 4 (Level 4: growth control rate is greater than or equal to 60% and less than 85%) |  |  |  | 0 (Level 0: growth control rate is less than 5%) | 0 (Level 0: growth control rate is less than 5%) | 0 (Level 0: growth control rate is less than 5%) |  |  |  | 
4 | CC(C)N1C(=O)c2cc(F)ccc2N(C(=O)N(C)C)S1(=O)=O [Compound 190] | 3 (Level 3: growth control rate is greater than or equal to 40% and less than 60%) |  |  |  | 0 (Level 0: growth control rate is less than 5%) | 0 (Level 0: growth control rate is less than 5%) | 0 (Level 0: growth control rate is less than 5%) |  |  |  | 
5 | CCCCCCCCSC(=O)N1c2c(F)cc(F)cc2C(=O)N(C(C)C)S1(=O)=O [Compound 222] | 5 (Level 5: growth control rate is above 85%) |  |  |  | 0 (Level 0: growth control rate is less than 5%) | 0 (Level 0: growth control rate is less than 5%) |  |  |  |  | 
6 | CC(C)N1C(=O)c2cc(F)cc(Cl)c2NS1(=O)=O [Compound 144] | 5 (Level 5: growth control rate is above 85%) | 5 (Level 5: growth control rate is above 85%) | 5 (Level 5: growth control rate is above 85%) | 5 (Level 5: growth control rate is above 85%) | 1 (Level 1: growth control rate is greater than or equal to 500 and less than 200%) | 0 (Level 0: growth control rate is less than 5%) | 1 (Level 1: growth control rate is greater than or equal to 500 and less than 200%) |  |  |  | 
7 | CC(=O)N1c2c(F)cc(F)cc2C(=O)N(C(C)C)S1(=O)=O [Compound 150] | 5 (Level 5: growth control rate is above 85%) | 5 (Level 5: growth control rate is above 85%) | 5 (Level 5: growth control rate is above 85%) | 5 (Level 5: growth control rate is above 85%) | 1 (Level 1: growth control rate is greater than or equal to 500 and less than 200%) | 1 (Level 1: growth control rate is greater than or equal to 500 and less than 200%) | 1 (Level 1: growth control rate is greater than or equal to 500 and less than 200%) |  |  |  | 
8 | CC(C)N1C(=O)c2cc(F)ccc2N(C(C)OC(=O)OC2CCCCC2)S1(=O)=O (racemic) [Compound 194] | 4 (Level 4: growth control rate is greater than or equal to 60% and less than 85%) |  |  |  | 0 (Level 0: growth control rate is less than 5%) | 0 (Level 0: growth control rate is less than 5%) | 0 (Level 0: growth control rate is less than 5%) |  |  |  | 
9 | CCOC(=O)OC(C)N1c2c(Cl)cc(F)cc2C(=O)N(C(C)C)S1(=O)=O (centres unmarked) [Compound 153] | 5 (Level 5: growth control rate is above 85%) | 5 (Level 5: growth control rate is above 85%) | 5 (Level 5: growth control rate is above 85%) | 5 (Level 5: growth control rate is above 85%) | 0 (Level 0: growth control rate is less than 5%) | 0 (Level 0: growth control rate is less than 5%) | 1 (Level 1: growth control rate is greater than or equal to 500 and less than 200%) |  |  |  | 
10 | CC(C)N1C(=O)c2cc(F)cc(F)c2N(C(=O)OCCCCl)S1(=O)=O [Compound 221] | 5 (Level 5: growth control rate is above 85%) | 5 (Level 5: growth control rate is above 85%) | 4 (Level 4: growth control rate is greater than or equal to 60% and less than 85%) | 5 (Level 5: growth control rate is above 85%) |  |  |  |  |  |  | 
11 | CCS(=O)(=O)N1c2c(F)cc(F)cc2C(=O)N(C(C)C)S1(=O)=O [Compound 228] | 5 (Level 5: growth control rate is above 85%) | 3 (Level 3: growth control rate is greater than or equal to 40% and less than 60%) | 3 (Level 3: growth control rate is greater than or equal to 40% and less than 60%) | 5 (Level 5: growth control rate is above 85%) |  |  |  |  |  |  | 
12 | CS(=O)(=O)NC(=O)c1cc(Oc2ccc(C(F)(F)F)cc2Cl)ccc1[N+](=O)[O-] [fomesafen, reference compound] |  |  |  |  |  |  |  | 0 (Level 0: growth control rate is less than 5%) | 1 (Level 1: growth control rate is greater than or equal to 500 and less than 200%) | 2 (Level 2: growth control rate is greater than or equal to 20% and less than 40%) | 1 (Level 1: growth control rate is greater than or equal to 500 and less than 200%)
